Laboratory results reported in patent publication US20250268903A1, “RXFP1 AGONISTS” (BRISTOL-MYERS SQUIBB COMPANY, priority 2021, published 2025).

molecular target: T1, human RXFP1 (Homo sapiens, UniProt Q9HBX9); assay: hRXFP1 HEK293 cAMP assay (HTRF); assay type: cell-based; details: HEK293 cells stably expressing human RXFP1, 30 min at room temperature
T1 construct: expressed in transfected cells
T1 sequence (Q9HBX9 1-757): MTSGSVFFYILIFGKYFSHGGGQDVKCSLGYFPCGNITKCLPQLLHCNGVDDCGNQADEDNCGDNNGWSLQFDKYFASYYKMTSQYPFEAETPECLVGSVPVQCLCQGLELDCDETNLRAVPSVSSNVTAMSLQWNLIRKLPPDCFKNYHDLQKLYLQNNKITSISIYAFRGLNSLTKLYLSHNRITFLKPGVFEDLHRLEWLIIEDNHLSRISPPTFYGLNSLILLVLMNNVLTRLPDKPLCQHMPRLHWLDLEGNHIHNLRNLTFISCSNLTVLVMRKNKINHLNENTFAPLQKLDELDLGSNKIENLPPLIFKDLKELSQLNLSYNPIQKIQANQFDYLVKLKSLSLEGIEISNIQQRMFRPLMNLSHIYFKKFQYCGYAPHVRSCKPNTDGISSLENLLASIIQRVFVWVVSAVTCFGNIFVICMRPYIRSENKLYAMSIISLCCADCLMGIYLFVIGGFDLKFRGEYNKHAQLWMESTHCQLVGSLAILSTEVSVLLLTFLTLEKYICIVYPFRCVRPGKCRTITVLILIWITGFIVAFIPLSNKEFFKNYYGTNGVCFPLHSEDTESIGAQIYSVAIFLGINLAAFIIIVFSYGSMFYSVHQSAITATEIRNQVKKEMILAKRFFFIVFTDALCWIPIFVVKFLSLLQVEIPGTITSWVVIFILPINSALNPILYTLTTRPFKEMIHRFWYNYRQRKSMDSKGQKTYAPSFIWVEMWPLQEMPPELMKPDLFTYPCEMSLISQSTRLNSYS
How it was run: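 HEK293 cells stably expressing human RXFP1 (1500 cells/well) in HBSS/20 mM HEPES/0.05% BSA/0.5 mM IBMX. Compounds were tested at 0.010 nM–50 μM final (2% DMSO) for 30 min at room temperature. cAMP was measured by HTRF and values derived by 4-parameter logistic fit.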

Compound | EC50 [nM]
COc1ccc(C2CCCC(N3CC(F)(F)C3)C2)cc1C(=O)N[C@H]1[C@@H](C(=O)Nc2ccc(F)c(C(F)(F)F)c2)[C@H]2CC[C@@H]1/C2=C\C(F)(F)F (stereo partly drawn) [Example 355, (1R,2S,3R,4R,7Z)-3-[5-13-(3,3-difluoroazetidin-1-yl)cyclohexyl]-2-methoxybenzamido 3-N-[4-fluoro-3-(trifluoromethyl)phenyl]-7-(2,2,2-trifluoroethylidene) bicyclo[2.2.1] heptane-2-carboxamide] | 4960
COc1ccc(CCC(C)(C)O)cc1C(=O)NC1C2CCC(/C2=C/C2CCOCC2)[C@@H]1C(=O)Nc1ccc(F)c(C(F)(F)F)c1 (stereo partly shown) [Example 166, (7Z)-N-[4-fluoro-3-(trifluoromethyl)phe-nyl]-3-[5-(3-hydroxy-3-methylbutyl)-2-methoxybenzamido]-7-[(oxan-4-yl)methylidene]bicy-clo[2.2.1]heptane-2-carboxamide] | 129
COc1ccc(CCO)cc1C(=O)NC1C2CCC(/C2=C/C(F)(F)F)[C@@H]1C(=O)Nc1ccc(F)c(C(F)(F)F)c1 (stereo partly shown) [Example 55] | 781
COc1ccc(CCCO)cc1C(=O)N[C@@H]1C2CCC(/C2=C/C2CCC2)[C@@H]1C(=O)Nc1ccc(F)c(C(F)(F)F)c1 (stereo partly drawn) [Example 86, (2S,3R,7Z)-7-(cyclobutylmethyli-dene)-N-[4-fluoro-3-(trifluoromethyl)phe-nyl]-3-[5-(3-hydroxypropyl)-2-methoxybenzamido] bicyclo[2.2.1]heptane-2-carboxamide] | 45
COc1ccc([C@@H]2CCC(CC(C)(C)O)C2)cc1C(=O)N[C@H]1[C@@H](C(=O)Nc2ccc(F)c(C(F)(F)F)c2)[C@H]2CC[C@@H]1/C2=C\C1CCCC1 (stereo partly drawn) [Example 362, (1R,2S,3R,4R,Z)-7-(cyclopentyl-methylene)-N-(4-fluoro-3-(trifluoromethyl)phenyl)-3-(5-((1R)-3-(2-hydroxy-2-methylpropyl)cyclopentyl)-2-methoxybenzamido) bicyclo[2.2.1] heptane-2-carboxamide] | 3
COc1ccc(C(=O)OC(C)(C)C)cc1C(=O)N[C@H]1[C@@H](C(=O)Nc2ccc(F)c(C(F)(F)F)c2)[C@H]2CC[C@@H]1/C2=C\C1CC1 [Example 227] | 77.2
COc1ccc(C23CCC2CC(CO)C3)cc1C(=O)N[C@H]1[C@@H](C(=O)Nc2ccc(F)c(C(F)(F)F)c2)[C@H]2CC[C@@H]1/C2=C\C1CC1 (stereo partly drawn) [Example 353, (1R,2S,3R,4R,7Z)-7-(cyclopropyl-methylidene)-N-[4-fluoro-3-(trifluoromethyl)phenyl]-3-{5-[3-(hydroxymethyl)bicyclo[3.2.0]heptan-1-yl]-2-methoxybenzamido} bicyclo[2.2.1]heptane-2-carboxamide] | 181
COc1ccc(CCCCCC#N)cc1C(=O)NC1C2CCC(/C2=C/C2CCC2)[C@@H]1C(=O)Nc1ccc(F)c(C(F)(F)F)c1 (stereo partly shown) [Example 190, (7Z)-3-[5-(5-cyanopentyl)-2-methoxybenzamido]-7-(cyclobutylmethyli-dene)-N-[4-fluoro-3-(trifluoromethyl)phe-nyl]bicyclo[2.2.1]hept-ane-2-carboxamide] | 23
COc1ccc(CC[C@H](C)O)cc1C(=O)N[C@@H]1C2CCC(/C2=C/C(F)(F)F)[C@@H]1C(=O)Nc1ccc(F)c(C(F)(F)F)c1 (stereo partly drawn) [Example 92, (2S,3R,7Z)-N-[4-fluoro-3-(trifluoromethyl)phe-nyl]-3-{5-[(3S)-3-hydroxybutyl]-2-methoxybenzamido}-7-(2,2,2-trifluoroethylidene)bi-cyclo[2.2.1]heptane-2-carboxamide] | 172
COc1ccc(COc2cccc(C(=O)O)c2)cc1C(=O)N[C@H]1[C@@H](C(=O)Nc2ccc(F)c(C(F)(F)F)c2)[C@H]2CC[C@@H]1/C2=C\C1CC1 [Example 12, 3-((3-(((1R,2R,3S,4R,Z)-7-(cyclopropylmethylene)-3-((4-fluoro-3-(trifluoromethyl)phenyl)carbamoyl)bicyclo[2.2.1]heptan-2-yl)carbamoyl)-4-methoxybenzyl)oxy)benzoic acid] | 10
COc1ccc(C2=CC(=O)CCC2)cc1C(=O)N[C@@H]1C2CCC(/C2=C/C(F)(F)F)[C@@H]1C(=O)Nc1ccc(F)c(C(F)(F)F)c1 (stereo partly shown) [Example 34] | 470
COc1ccc(/C=C/CCO)cc1C(=O)N[C@@H]1C2CCC(C2=C(C)C)[C@@H]1C(=O)Nc1ccc(F)c(C(F)(F)F)c1 (stereo partly shown) [Example 32] | 740
COc1cc(F)c(O[C@H]2CC[C@H](C(=O)O)CC2)cc1C(=O)N[C@@H]1C2CCC(/C2=C/C2CC2)[C@@H]1C(=O)Nc1ccc(F)c(C(F)(F)F)c1 (stereo partly drawn) [Example 376, (1R,4r)-4-(5-(((1R,2R,3S,4R,Z)-7-(cyclopropyl-methylene)-3-((4-fluoro-3-(trifluoromethyl)phenyl)carbamoyl)bicyclo[2.2.1]heptan-2-yl)carbamoyl)-2-fluoro-4-methoxyphenoxy) cyclohexane-1-carboxylic acid] | 120
COc1ccc(COC2CCC(O)CC2)cc1C(=O)N[C@H]1[C@@H](C(=O)Nc2ccc(F)c(C(F)(F)F)c2)[C@H]2CC[C@@H]1/C2=C\C1CC1 (stereo partly drawn) [Example 289, (1R,2S,3R,4R,7Z)-7-(cyclopropyl-methylidene)-N-[4-fluoro-3-(trifluoromethyl)phenyl]-3-(5-{[(4-hydroxycyclohexyl)oxy]methyl}-2-methoxybenzamido) bicyclo[2.2.1]heptane-2-carboxamide] | 14.5
COc1ccc(C2CC3CC(O)CC32)cc1C(=O)N[C@H]1[C@@H](C(=O)Nc2ccc(F)c(C(F)(F)F)c2)[C@H]2CC[C@@H]1/C2=C\C1CC1 (single isomer, unassigned) [Example 342] | 27.8
COc1ccc(C(=O)N2CCO[C@@H](CO)C2)cc1C(=O)N[C@H]1[C@@H](C(=O)Nc2ccc(F)c(C(F)(F)F)c2)[C@H]2CC[C@@H]1/C2=C\C1CC1 [Example 231, (1R,2S,3R,4R,7Z)-7-(cyclopropylmethyl-idene)-N-[4-fluoro-3-(trifluoromethyl)phenyl]-3-{5-[(2R)-2-(hydroxymethyl)morpholine-4-carbonyl]-2-methoxybenzamido} bicyclo[2.2.1] heptane-2-carboxamide] | 32
COc1c(F)cc(C(=O)NCC2(S(C)(=O)=O)CC2)cc1C(=O)N[C@H]1[C@@H](C(=O)N[C@H](C)C2(C)CC2)[C@H]2CC[C@@H]1/C2=C\c1cnc(C(F)(F)F)s1 [Example 373, 5-fluoro-N1-[(1-methanesulfonyl-cyclopropyl)methyl]-4-methoxy-N3-[(1R,2R,3S,4R,7Z)-3-{[(1R)-1-(1-methylcyclopropyl)ethyl]carbamoyl}-7-{[2-(trifluoromethyl)-1,3-thiazol-5-yl]methylidene}bicyclo[2.2.1]heptan-2-yl]benzene-1,3-dicarboxamide] | 3.6
COc1ccc(C2CC3CC(CO)CC32)cc1C(=O)N[C@H]1[C@@H](C(=O)Nc2ccc(F)c(C(F)(F)F)c2)[C@H]2CC[C@@H]1/C2=C\C1CC1 (single isomer, unassigned) [Example 351] | 27.7
COc1ccc(Cc2ccc(F)cc2)cc1C(=O)N[C@H]1[C@@H](C(=O)Nc2ccc(F)c(C(F)(F)F)c2)[C@H]2CC[C@@H]1/C2=C\C(F)(F)F [Example 155, (1R,2S,3R,4R,Z)—N-(4-fluoro-3-(trifluoromethyl)phenyl)-3-(5-(4-fluorobenzyl)-2-methoxybenzamido)-7-(2,2,2-trifluoroethylidene) bicyclo[2.2.1]heptane-2-carboxamide] | 427
COc1ccc(C[C@H]2C[C@H](O)C2)cc1C(=O)N[C@H]1[C@@H](C(=O)Nc2ccc(F)c(C(F)(F)F)c2)[C@H]2CC[C@@H]1/C2=C\C(F)(F)F [Example 278, (1R,2S,3R,4R,7Z)-N-[4-fluoro-3-(trifluoromethyl)phenyl]-3-(2-methoxy-5-{[(1r,3s)-3-hydroxycyclobutyl]methyl}benzamido)-7-(2,2,2-trifluoroethylidene) bicyclo[2.2.1]heptane-2-carboxamide] | 32
COC(=O)C1CC(c2ccc(OC)c(C(=O)N[C@H]3[C@@H](C(=O)Nc4ccc(F)c(C(F)(F)F)c4)[C@H]4CC[C@@H]3/C4=C\C(F)(F)F)c2)C1 (stereo partly drawn) [Example 331, methyl 3-(3-{(1R.2R,3S,4R,7Z)-3-{[4-fluoro-3-(trifluoromethyl)phenyl]carbamoyl}-7-(2,2,2-trifluoroethylidene)bicyclo[2.2.1]heptan-2-yl]carbamoyl}-4-methoxyphenyl) cyclobutane-1-carboxylate] | 551
COc1ccc(CCN2CCOC2=O)cc1C(=O)NC1C2CCC(/C2=C/C(F)(F)F)[C@@H]1C(=O)Nc1ccc(F)c(C(F)(F)F)c1 (stereo partly shown) [Example 182, (7Z)-N-[4-fluoro-3-(trifluoromethyl)phe-nyl]-3-{2-methoxy-5-[2-(2-oxo-1,3-oxazolidin-3-yl)ethyl]benzamido}-7-(2,2,2-trifluoroethylidene)bi-cyclo[2.2.1]heptane-2-carboxamide] | 139
